# Test results published in patent EP3061750A1, “PYRAZOLE AMIDE COMPOUND CONTAINING DIPHENYL ETHER, AND APPLICATION THEREOF, AND PESTICIDE COMPOSITION” (Central China Normal University, priority 2013, dated 2015).
# Where two headings read alike, the source gives them in different places.
# What was measured:
# [1] = system: Cucumber powdery mildew (Sphaerotheca uliginea); assay: pot in vivo assay of bactericidal activity, cucumber powdery mildew; settings: for pest or weed control at 200 µg/mL: Cucumis sativus, read-out: Efficacy(%) cucumber powery mildew
# From the text: (§1) This test is used to determine the bactericidal activity of the compounds prepared in Example 1, Preparation Examples 1 and 2.
# (§2) The targets used in the test example are rice sheath blight and cucumber powdery mildew.
# (§3) Test Method: According to "Standard Practice for determination of pesticide biological activity (SOP)", pyrazole amide compound containing diphenyl ether was dispensed to 5% emulsifiable concentrates (hereinafter referred to as 5% EC), […] method (pot in vivo assay). The screening results on the two test targets of the compounds prepared in Example 1, Preparation Examples 1 and 2 were shown in Table 4.
# Cucumber powdery mildew (Sphaerotheca uliginea)
# A cucumber seedling with uniform growth in true leaf stage was chosen, and dried in shade for 24h after spray treatment. Fresh cucumber powdery mildew spores on the cucumber leaves were collected and washed, and filtered through a double gauze to prepare a spore suspension with concentration of about 100,000 / ml, then spray inoculation was applied. The test materials inoculated were moved into artificial climate with relative humidity of 60-70% and temperature of 21-23 °C (indoor lighting), after about 10 days, investigating and grading were carried out according to the incidence of the blank control, and the control effect was calculated according to the disease index.
# (§4) Investigation method and grading standard adopted "Guidelines for the field efficacy trials of pesticides", and the control effect was calculated with the disease index. The disease index = Σ(number of diseased leaves at each grade×relative grade value) × 100/(total number of leaves×9); [formula] Control effect (%) = (disease index of control−disease index of treated) × 100/disease index of control. [formula]
# [2] = system: Rice sheath blight (Rhizoctonia solani); assay: pot in vivo assay of bactericidal activity, rice sheath blight; settings: for pest or weed control at 200 µg/mL: Rhizoctonia solani, read-out: Efficacy(%) rice sheath blight
# From the text: as §1, §2
# as §3, with “EC), the” for “EC),”
# Rice sheath blight (Rhizoctonia solani)
# Two potted rice seedlings with uniform growth in true leaf stage were chosen, and dried by air after spray treatment. The side of bacteria cake with mycelium was closely attached on the leaves, after cultured at 22-26 °C under dark light in a moisture preserving manner for 24h, then cultured with natural light for about 4 days. The diameter of disease spot of each inoculating point was measured by using a caliper after the control material was fully attacked by disease, and the control effect was calculated.
# as §4
# succinate dehydrogenase = target: T1, succinate dehydrogenase (Sus scrofa, UniProt A5GZW8+D0VWV4+Q007T0); assay: inhibitory activity on succinate dehydrogenase (DCIP reduction at 600 nm); type: biochemical, pig; settings: for inhibition at 0.03 µM: concentration 0.03 µM; for inhibition at 0.05 µM: concentration 0.05 µM; for inhibition at 0.1 µM: concentration 0.1 µM; for inhibition at 0.2 µM: concentration 0.2 µM; for inhibition at 0.5 µM: concentration 0.5 µM
# T1 construct: succinate dehydrogenase, which was isolated from pig hearts; from tissue; host or cells: pig heart
# T1 sequence (Q007T0 29-280): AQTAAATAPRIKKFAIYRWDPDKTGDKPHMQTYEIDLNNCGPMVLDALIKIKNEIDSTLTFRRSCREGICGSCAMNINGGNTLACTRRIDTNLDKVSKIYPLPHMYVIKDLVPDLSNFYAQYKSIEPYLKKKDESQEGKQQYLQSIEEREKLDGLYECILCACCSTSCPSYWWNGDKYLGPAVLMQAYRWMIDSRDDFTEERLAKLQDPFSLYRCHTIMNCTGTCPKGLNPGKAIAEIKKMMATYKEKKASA
# T1 sequence (D0VWV4 30-169): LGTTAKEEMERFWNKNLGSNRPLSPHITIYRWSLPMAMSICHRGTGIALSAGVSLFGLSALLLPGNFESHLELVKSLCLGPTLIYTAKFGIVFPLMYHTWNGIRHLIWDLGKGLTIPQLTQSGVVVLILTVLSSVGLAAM
# T1 sequence (A5GZW8 57-159 limits assumed): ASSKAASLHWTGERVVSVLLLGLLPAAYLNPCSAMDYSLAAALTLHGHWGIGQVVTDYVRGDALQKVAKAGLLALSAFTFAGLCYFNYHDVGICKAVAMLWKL
# T1 sequence (Q0QF01 43-664 partner): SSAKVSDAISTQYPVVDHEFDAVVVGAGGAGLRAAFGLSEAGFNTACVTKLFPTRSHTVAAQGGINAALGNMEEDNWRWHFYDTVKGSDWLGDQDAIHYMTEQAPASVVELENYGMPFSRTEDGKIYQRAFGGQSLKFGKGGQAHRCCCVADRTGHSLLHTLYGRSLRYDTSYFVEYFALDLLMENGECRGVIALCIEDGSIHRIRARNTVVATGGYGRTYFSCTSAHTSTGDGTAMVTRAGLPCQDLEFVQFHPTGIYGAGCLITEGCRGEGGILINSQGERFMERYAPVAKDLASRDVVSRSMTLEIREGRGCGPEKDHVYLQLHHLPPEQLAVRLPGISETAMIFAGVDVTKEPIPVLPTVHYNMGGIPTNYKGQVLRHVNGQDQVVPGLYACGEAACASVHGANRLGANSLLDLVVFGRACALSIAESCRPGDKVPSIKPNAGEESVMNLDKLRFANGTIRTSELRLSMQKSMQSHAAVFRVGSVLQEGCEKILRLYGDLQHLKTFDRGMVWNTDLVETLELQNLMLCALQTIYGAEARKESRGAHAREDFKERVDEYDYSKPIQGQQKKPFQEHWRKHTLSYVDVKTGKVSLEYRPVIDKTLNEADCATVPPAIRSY
# Method: This test was used to determine the inhibitory activity on the succinate dehydrogenase of the compounds prepared in Example 1, Preparation Examples 1 and 2 .
# The enzyme used in the test example was succinate dehydrogenase, which was isolated from pig hearts.
# Test Method: total volume was 1.8ml, the system comprised 100mM Na2HPO4-NaH2PO4 buffer (pH7.4), 0.3mM EDTA, 20mM sodium succinate, 53µM DCIP (2,6-dichloro indophenol sodium), 2nM succinate dehydrogenase. In water bath with 23 °C of constant temperature and 600rpm magnetic stirring, the reduction of the light absorption of substrate DCIP was monitored at a wavelength of 600nm, the experimental points within the linear range were collected, that is, the experimental points in which the consumption of substrate was controlled not exceeding 5% were collected. The molar extinction coefficient of DCIP was 21mM^-1cm^-1. The reduction amount of DCIP during the reaction time was calculated and linear slope was fitted, and then the initial velocity of the reaction was obtained by deducting the baseline slope.
# [3] = concentration 1 µM, read-out: inhibition ratio(%)
# [4] = concentration 10 µM, read-out: inhibition ratio(%)
# [5] = concentration 50 µM, read-out: inhibition ratio(%)
# [6] = concentration 200 mg/L, 5% EC, pot
smiles,measurement,setting,value
Cc1cccc(Oc2ccccc2NC(=O)c2cn(C)nc2C(F)(F)F)c1C [III-13],pest or weed control at 200 µg/mL,[1],0%
same,pest or weed control at 200 µg/mL,[2],63.2%
same,IC50,succinate dehydrogenase,9860 ± 1270 nM
"Cn1cc(C(=O)Nc2ccccc2Oc2ccccc2)c(C(F)(F)F)n1 [Comparative compound 12, reference compound]",pest or weed control at 200 µg/mL,[1],0%
same,pest or weed control at 200 µg/mL,[2],30.9%
same,IC50,succinate dehydrogenase,19800 ± 1070 nM
same,inhibition at 1 µM,succinate dehydrogenase; read-out: inhibition ratio(%),0%
same,inhibition at 5 µM,succinate dehydrogenase; read-out: inhibition ratio(%),10%
same,inhibition at 10 µM,succinate dehydrogenase; read-out: inhibition ratio(%),22.3%
same,inhibition at 20 µM,succinate dehydrogenase; read-out: inhibition ratio(%),38%
same,inhibition at 30 µM,succinate dehydrogenase; read-out: inhibition ratio(%),50.3%
same,inhibition at 50 µM,succinate dehydrogenase; read-out: inhibition ratio(%),61.8%
"Cc1nc(C(F)(F)F)c(C(=O)Nc2c(Br)cc(OC(F)(F)F)cc2Br)s1 [Thifluzamide, reference compound]",efficacy on cucumber powery mildew(%),[1]; concentration 12.5 mg/L,0%
same,efficacy on cucumber powery mildew(%),[1]; concentration 25 mg/L,22.22%
same,efficacy on cucumber powery mildew(%),[1]; concentration 50 mg/L,62.96%
same,efficacy on cucumber powery mildew(%),[1]; concentration 100 mg/L,100%
same,efficacy on rice sheath bilght(%),[2]; concentration 1.5 mg/L,0%
same,efficacy on rice sheath bilght(%),[2]; concentration 3.25 mg/L,13.38%
same,efficacy on rice sheath bilght(%),[2]; concentration 6.25 mg/L,54.30%
same,efficacy on rice sheath bilght(%),[2]; concentration 12.5 mg/L,61.36%
same,efficacy on rice sheath bilght(%),[2]; concentration 25 mg/L,81.85%
same,efficacy on rice sheath bilght(%),[2]; concentration 50 mg/L,100%
same,efficacy on rice sheath bilght(%),[2]; concentration 100 mg/L,100%
same,inhibition at 0.03 µM,succinate dehydrogenase; read-out: inhibition ratio(%),0%
same,inhibition at 0.05 µM,succinate dehydrogenase; read-out: inhibition ratio(%),9.21%
same,inhibition at 0.1 µM,succinate dehydrogenase; read-out: inhibition ratio(%),29.7%
same,inhibition at 0.2 µM,succinate dehydrogenase; read-out: inhibition ratio(%),47.6%
same,inhibition at 0.3 µM,"succinate dehydrogenase; concentration 0.3 µM, read-out: inhibition ratio(%)",59.5%
same,inhibition at 0.5 µM,succinate dehydrogenase; read-out: inhibition ratio(%),71.7%
same,inhibition at 1 µM,succinate dehydrogenase; [3],77.9%
same,inhibition at 10 µM,succinate dehydrogenase; [4],94.5%
same,inhibition at 50 µM,succinate dehydrogenase; [5],96.7%
same,IC50,"succinate dehydrogenase; succinate dehydrogenase isolated from pig hearts, pH7.4, 23 °C, read-out: IC50",200 ± 12.1 nM
Cn1cc(C(=O)Nc2ccccc2Oc2ccc(Cl)cc2)c(C(F)(F)F)n1 [III-9],pest or weed control at 200 µg/mL,[1],0%
same,pest or weed control at 200 µg/mL,[2],66.3%
same,IC50,"succinate dehydrogenase; succinate dehydrogenase isolated from pig hearts, pH7.4, 23 °C",4900 ± 1280 nM
Cn1cc(C(=O)Nc2ccccc2Oc2ccc(C#N)cc2)c(C(F)(F)F)n1 [III-6],pest or weed control at 200 µg/mL,[1],0%
same,pest or weed control at 200 µg/mL,[2],30.2%
same,IC50,"succinate dehydrogenase; cells printed as ""-"" (footnote)",> 100000 nM
Cn1cc(C(=O)Nc2ccccc2Oc2ccc(C(F)(F)F)cc2)c(C(F)(F)F)n1 [III-11],pest or weed control at 200 µg/mL,[1],0%
same,pest or weed control at 200 µg/mL,[2],56.3%
same,IC50,succinate dehydrogenase,3170 ± 1120 nM
COc1cc(Oc2ccccc2NC(=O)c2cn(C)nc2C(F)(F)F)cc(OC)c1OC [III-4],pest or weed control at 200 µg/mL,[1],0%
same,pest or weed control at 200 µg/mL,[2],0%
same,IC50,succinate dehydrogenase,> 100000 nM
Cn1cc(C(=O)Nc2ccccc2Oc2ccc(C(F)(F)F)cc2)c(C(F)F)n1 [III-12],pest or weed control at 200 µg/mL,[1],0%
same,pest or weed control at 200 µg/mL,[2],72.3%
same,IC50,succinate dehydrogenase,1620 ± 1350 nM
Cn1cc(C(=O)Nc2ccccc2Oc2ccc(C(F)(F)F)cc2Cl)c(C(F)F)n1 [Compound II],pest or weed control at 200 µg/mL,[1]; [6],100%
same,efficacy on cucumber powery mildew(%),[1]; concentration 6.25 mg/L,0%
same,efficacy on cucumber powery mildew(%),[1]; concentration 12.5 mg/L,66.67%
same,efficacy on cucumber powery mildew(%),[1]; concentration 25 mg/L,94.44%
same,efficacy on cucumber powery mildew(%),[1]; concentration 50 mg/L,100%
same,efficacy on cucumber powery mildew(%),[1]; concentration 100 mg/L,100%
same,pest or weed control at 200 µg/mL,[2]; [6],100%
same,efficacy on rice sheath bilght(%),[2]; concentration 0.75 mg/L,43.75%
same,efficacy on rice sheath bilght(%),[2]; concentration 1.5 mg/L,55.34%
same,efficacy on rice sheath bilght(%),[2]; concentration 3.125 mg/L,68.68%
same,efficacy on rice sheath bilght(%),[2]; concentration 6.25 mg/L,70.43%
same,efficacy on rice sheath bilght(%),[2]; concentration 12.5 mg/L,94.62%
same,efficacy on rice sheath bilght(%),[2]; concentration 25 mg/L,98.66%
same,efficacy on rice sheath bilght(%),[2]; concentration 50 mg/L,100%
same,efficacy on rice sheath bilght(%),[2]; concentration 100 mg/L,100%
same,IC50,succinate dehydrogenase,48.4 ± 1.71 nM
same,inhibition at 0.01 µM,"succinate dehydrogenase; concentration 0.01 µM, read-out: inhibition ratio(%)",11.7%
same,inhibition at 0.02 µM,"succinate dehydrogenase; concentration 0.02 µM, read-out: inhibition ratio(%)",20.8%
same,inhibition at 0.03 µM,succinate dehydrogenase; read-out: inhibition ratio(%),31.8%
same,inhibition at 0.05 µM,succinate dehydrogenase; read-out: inhibition ratio(%),47.1%
same,inhibition at 0.1 µM,succinate dehydrogenase; read-out: inhibition ratio(%),60.7%
same,inhibition at 0.2 µM,succinate dehydrogenase; read-out: inhibition ratio(%),75.3%
same,inhibition at 0.5 µM,succinate dehydrogenase; read-out: inhibition ratio(%),83.8%
same,inhibition at 1 µM,succinate dehydrogenase; [3],91.4%
same,inhibition at 10 µM,succinate dehydrogenase; [4],97.9%
same,inhibition at 50 µM,succinate dehydrogenase; [5],100%
Cn1cc(C(=O)Nc2ccccc2Oc2ccc(Cl)cc2Cl)c(C(F)(F)F)n1 [III-2],pest or weed control at 200 µg/mL,[1],72.2%
same,pest or weed control at 200 µg/mL,[2],0%
same,IC50,succinate dehydrogenase,2700 ± 1370 nM
Cc1cc(C)cc(Oc2ccccc2NC(=O)c2cn(C)nc2C(F)F)c1 [III-16],pest or weed control at 200 µg/mL,[1],0%
same,pest or weed control at 200 µg/mL,[2],50%
same,IC50,succinate dehydrogenase,2030 ± 1220 nM
